Measurements as given in publication PMC7002685, “Inhibition of vascular calcification by inositol phosphates derivatized with ethylene glycol oligomers” (Nature Communications, 2020).
“And” between values parts separate entries of the source, which are not always exact repeats. Equal values may be shown once.

Test system: transformation of CPP1 to CPP2 in pooled human serum
Test: In vitro serum calcification propensity (T50) screening assay
Type: biochemical
Set-up: key to T50: T50 in minutes (time to 50% CPP phase transition)
Conditions: for activity/unit mass: mean c350 x mw (Na salt); for concentration upon which a T50 of 350 min is reached (c350), mean: mean of n experiments; for concentration upon which a T50 of 350 min is reached (c350), single experiment: one value per experiment (lab journal reference E05-E40); for Concentration at T50 = 350 min mean ± s.d. (n) (c350): pooled human serum, 10 mM calcium, 6 mM phosphate, 37 °C; for c350: unit not printed in the sentence (equals mg/L column of rebuttal Table 1)
Protocol: The compounds were ranked for calcification inhibition activity using a nanoparticle-based test, developed for risk stratification, which measures the propensity for calcification in patient serum. […] The time, after which 50% of CPP phase transition occurred (T50), was assessed by time-resolved spectrophotometry at 550 nm (Supplementary Fig. 1a).
The screening assay was performed as described previously. In brief, pooled human serum (H4522, Sigma-Aldrich) stored at −20 °C was thawed at 37 °C, centrifuged (10,000 × g, and 4 °C, 30 min) (5427R, Eppendorf, Switzerland), and sterile filtered (0.22 μm filter, Millipore, Merck KGaA) to remove potential cryoprecipitates (cleared human serum). The calcium solution was 40 mM CaCl2 (102382, Merck KGaA) in HBS, pH 7.4 (RT) (100 mM HEPES (H3375, Sigma-Aldrich) and 140 mM NaCl (1734712, Fisher Scientific, Hampton, NH, USA)). […] All salt solutions and buffers were double sterile filtered (0.22 µm) and pre-warmed to 37 °C prior to use. […] The plate was sealed with an adhesive film and the absorption at 550 nm was measured every 3 min with 1 min in-between shaking for a total of 300 cycles at 37 °C using the infinite M200 microplate reader (Tecan, Männedorf, Switzerland). An A550 vs. time graph was generated and T50 (min) (time at half-maximum transition from CPP1 to CPP2) values were derived by sigmoidal curve fit using Prism 8 (nonlinear regression in the log(agonist) vs. response–variable slope (four parameter mode) using the robust fit fitting method, GraphPad Software, San Diego, CA, USA). Activities between compounds were compared by generating a T50 (min) vs. concentration (µM) graph, calculating nonlinear regression and deriving the concentration required to delay T50 to 350 min (c350) using a standard equation for the dose–response curve, Eq. (1), whereby x = [compound], y = time (min), bottom = baseline response, top = maximum response, T50 = [drug] that leads to half-maximum response, and the hill slope is a factor that describes the steepness of the curve.1 y= bottom+top - bottom/1+T50/x^hillslope.

[1] = concentration 1 μM, one value per experiment
[2] = concentration 3 μM, one value per experiment
[3] = concentration 5 μM, one value per experiment
[4] = concentration 10 μM, one value per experiment
[5] = concentration 0.3 μM, one value per experiment
[6] = concentration 15 μM, one value per experiment
[7] = concentration 30 μM, one value per experiment
[8] = concentration 50 μM, one value per experiment

With `COCCOCCO[C@H]1[C@H](OP(=O)(O)O)[C@H](OCCOCCOC)[C@H](OP(=O)(O)O)[C@@H](OCCOCCOC)[C@@H]1OP(=O)(O)O` [(OEG2)3-IP3, 2,4,6-Tri-O-(methoxy-diethyleneglycol)-myo-inositol-1,3,5-tris(phosphate)] as the molecule, how does the T50 [1] read?
Its T50 is 250.8 and 223.6 and 227.933.

And the T50 [2]?
Its T50 is 288.867 and 266.233 and 265.7.

And the T50 [3]?
The T50 was 325.1 and 295.733 and 294.5.

What about the T50 [4] of the same molecule?
The T50 was 440.6 and 395.433 and 411.533.

What about the activity/unit mass of the same molecule?
Its activity/unit mass is 5.43 mg/L.

And the “concentration upon which a T50 of 350 min is reached (c350), mean” value (from here on “concentration upon which a T50 … mean”)?
The value was 7.1 µM.

And the “concentration upon which a T50 of 350 min is reached (c350), single experiment” value?
Its value is 6.1 µM and 7.7 µM and 7.4 µM.

What about the “Concentration at T50 = 350 min mean ± s.d. (n) (c350)” value (from here on “Concentration … (n) (c350)”) of the same molecule?
Its value is 7.1 ± 0.9 (3) µM and 5.4 ± 0.7 (3) mg/L.

Which T50 [5] does the source give for `COCCOCCO[C@@H]1[C@@H](OP(=O)(O)O)[C@H](OP(=O)(O)O)[C@@H](OP(=O)(O)O)[C@@H](OP(=O)(O)O)[C@H]1OP(=O)(O)O` (racemic) [OEG2-IP5, (±)-6-O-(methoxy-diethyleneglycol)-myo-inositol-1,2,3,4,5-pentakis(phosphate)] here?
The T50 was 233.1 and 222.8 and 210.3.

And the T50 [1]?
Its T50 is 261.7 and 258.567 and 225.033.

What about the T50 [2] of the same molecule?
The T50 was 295.2 and 270.867 and 244.067.

What about the T50 [4] of the same molecule?
The T50 was 440.033 and 391.7 and 340.167.

What about the activity/unit mass of the same molecule?
Its activity/unit mass is 7.10 mg/L.

What about the “concentration upon which a T50 … mean” value of the same molecule?
The value was 7.9 µM.

What about the “concentration upon which a T50 of 350 min is reached (c350), single experiment” value of the same molecule?
Its value is 5.5 µM and 7.4 µM and 10.7 µM.

And the “Concentration … (n) (c350)” value?
Its value is 7.9 ± 2.7 (3) µM and 7.1 ± 2.4 (3) mg/L.

And the “Concentration … (n) (c350)” value (listed as (±)-4-O-(methoxy-diethyleneglycol)-myo-inositol-1,2,3,5,6-pentakis(phosphate))?
Its value is 7.9 ± 2.7 µM and 7.1 ± 2.4 mg/L.

And the c350?
Its c350 is 7.1 ± 2.4.

Which T50 [1] does the source give for `CC(O)(P(=O)(O)O)P(=O)(O)O` [Etidronate, etidronate] here?
Its T50 is 222.567 and 215.333 and 215.167.

And the T50 [2]?
The T50 was 248.167 and 245.7 and 237.9.

What about the T50 [3] of the same molecule?
The T50 was 290 and 263.6 and 286.233.

What about the T50 [4] of the same molecule?
The T50 was 321.233 and 361.6.

And the T50 [6]?
Its T50 is 433.033 and 458.567.

And the T50 [7]?
Its T50 is 729.533.

And the activity/unit mass?
The activity/unit mass was 2.61 mg/L.

What about the “concentration upon which a T50 … mean” value of the same molecule?
The value was 10.5 µM.

And the “concentration upon which a T50 of 350 min is reached (c350), single experiment” value?
The value was 9.9 µM and 11.5 µM and 11.3 µM and 9.1 µM.

What about the “Concentration … (n) (c350)” value of the same molecule?
Its value is 10.5 ± 1.1 (4) µM and 2.6 ± 0.3 (4) mg/L.

With `O[C@H]1[C@H](O)[C@@H](O)[C@H](O)[C@@H](O)[C@H]1O` [myo-Inositol, myo-inositol] as the molecule, how does the T50 (1 µM, individual experiments, Fig. 2a) read?
The T50 was 207.8 min and 255.6 min and 248.233 min and 290.55 min.

What about the T50 (3 µM, individual experiments, Fig. 2a) of the same molecule?
The T50 was 211.367 min and 251.867 min and 315.75 min.

And the T50 (10 µM, individual experiments, Fig. 2a)?
The T50 was 222.4 min and 274.533 min and 249.233 min and 297.6 min.

What about the T50 (30 µM, individual experiments, Fig. 2a) of the same molecule?
The T50 was 215.55 min and 286.233 min and 247.167 min and 309.65 min.

What about the T50 (50 µM, individual experiments, Fig. 2a) of the same molecule?
Its T50 is 213.1 min and 307.8 min.

What about the T50 (100 µM, individual experiments, Fig. 2a) of the same molecule?
The T50 was 291.467 min and 250.833 min.

What about the T50 [1] of the same molecule?
Its T50 is 207.8 and 255.6 and 248.233 and 290.55.

And the T50 [2]?
The T50 was 211.367 and 251.867 and 315.75.

What about the T50 [4] of the same molecule?
The T50 was 222.4 and 274.533 and 249.233 and 297.6.

And the T50 [7]?
Its T50 is 215.55 and 286.233 and 247.167 and 309.65.

And the T50 [8]?
Its T50 is 213.1 and 307.8.

What about the T50 (concentration 100 μM, one value per experiment) of the same molecule?
The T50 was 291.467 and 250.833.

What about the activity/unit mass of the same molecule?
Its activity/unit mass is 18.02 mg/L.

What about the “concentration upon which a T50 … mean” value of the same molecule?
The value was greater than 100 µM.

And the “Concentration … (n) (c350)” value?
Its value is >100 (4) µM and >18.0 (4) mg/L.

How did the T50 [5] turn out when `COCCOCCOCCOCCOCCOCCOCCO[C@@H]1[C@@H](OP(=O)(O)O)[C@H](OCCOCCOCCOCCOCCOCCOCCOC)[C@@H](OP(=O)(O)O)[C@@H](OP(=O)(O)O)[C@H]1OP(=O)(O)O` [(OEG7)2-IP4, 4,6-Di-O-(methoxy-heptaethyleneglycol)-myo-inositol-1,2,3,5-tetrakis(phosphate)] was run?
Its T50 is 217.433 and 203.2 and 207.5.

What about the T50 [1] of the same molecule?
The T50 was 243.55 and 226.667 and 233.367.

And the T50 [2]?
The T50 was 297.4 and 271.533 and 282.8.

And the T50 [4]?
Its T50 is 754.35 and 624.433 and 692.333.

What about the activity/unit mass of the same molecule?
Its activity/unit mass is 5.96 mg/L.

What about the “concentration upon which a T50 … mean” value of the same molecule?
Its value is 4.5 µM.

What about the “concentration upon which a T50 of 350 min is reached (c350), single experiment” value of the same molecule?
The value was 4.1 µM and 4.9 µM and 4.5 µM.

And the “Concentration … (n) (c350)” value?
Its value is 4.5 ± 0.4 (3) µM and 6.0 ± 0.6 (3) mg/L.

What does the source list for `O=P(O)(O)O[C@@H]1[C@@H](O)[C@H](OP(=O)(O)O)[C@@H](OP(=O)(O)O)[C@H](O)[C@@H]1OP(=O)(O)O` [IP4, myo-Inositol-2,3,5,6-tetrakisphosphate]?
T50 [1]: 211 and 218.833 and 216.333; T50 [2]: 225 and 236 and 231.367; T50 [4]: 262.033 and 281.067 and 280.633; T50 [7]: 466.533 and 430.4 and 481.633; T50 [8]: 774.233 and 614.5 and 810.35; concentration upon which a T50 of 350 min is reached (c350), mean: 19.5 µM; concentration upon which a T50 of 350 min is reached (c350), single experiment: 20.1 µM and 19.8 µM and 18.8 µM; Concentration at T50 = 350 min mean ± s.d. (n) (c350): 19.5 ± 0.7 (3) µM and 13.2 ± 0.5 (3) mg/L

How did the T50 [1] turn out when `O=P(O)(O)O[C@@H]1[C@H](OP(=O)(O)O)[C@H](OP(=O)(O)O)[C@@H](O)[C@H](OP(=O)(O)O)[C@H]1OP(=O)(O)O` [IP5, myo-Inositol-1,2,3,5,6-pentakisphosphate] was run?
The T50 was 220.367 and 229.167 and 217.95.

What about the T50 [2] of the same molecule?
Its T50 is 240.433 and 226.567.

What about the T50 [4] of the same molecule?
The T50 was 286.067 and 304.933 and 322.1.

What about the T50 [6] of the same molecule?
Its T50 is 373.933.

What about the T50 [7] of the same molecule?
The T50 was 702.867 and 723.533 and 709.1.

What about the “concentration upon which a T50 … mean” value of the same molecule?
The value was 13.2 µM.

What about the “concentration upon which a T50 of 350 min is reached (c350), single experiment” value of the same molecule?
Its value is 14.6 µM and 12.1 µM and 12.9 µM.

What about the “Concentration … (n) (c350)” value of the same molecule?
Its value is 13.2 ± 1.3 (3) µM and 10.5 ± 1.0 (3) mg/L.

Which T50 [1] does the source give for `OP(O)(=S)O[C@H]1[C@H](OP(O)(O)=S)[C@@H](OP(O)(O)=S)[C@H](OP(O)(O)=S)[C@@H](OP(O)(O)=S)[C@H]1OP(O)(O)=S` [IT6, myo-Inositol hexathiophosphate] here?
The T50 was 209.1 and 228.433 and 226.433.

And the T50 [2]?
The T50 was 226.567 and 251.033 and 247.133.

What about the T50 [4] of the same molecule?
Its T50 is 291.533 and 299.233 and 300.133.

And the T50 [7]?
The T50 was 577.433 and 598.2 and 571.6.

And the activity/unit mass?
The activity/unit mass was 12.79 mg/L.

And the “concentration upon which a T50 … mean” value?
Its value is 14.4 µM.

And the “concentration upon which a T50 of 350 min is reached (c350), single experiment” value?
Its value is 14.7 µM and 14.2 µM and 14.3 µM.

What about the “Concentration … (n) (c350)” value of the same molecule?
Its value is 14.4 ± 0.3 (3) µM.

With `COCCOCCO[C@H]1[C@@H](OP(=O)(O)O)[C@H](OP(=O)(O)O)[C@@H](OP(=O)(O)O)[C@H](OP(=O)(O)O)[C@H]1OP(=O)(O)O` [2-mono-OEG2-IP5, (±)-2-O-(methoxy-diethyleneglycol)-myo-inositol-1,2,3,5,6-pentakis(phosphate)] as the molecule, how does the “Concentration … (n) (c350)” value read?
Its value is 8.8 ± 0.1 µM.

What about the “Concentration … (n) (c350)” value (listed as (±)-2-O-(methoxy-diethyleneglycol)-myo-inositol-1,2,3,5,6-pentakis(phosphate)) of the same molecule?
Its value is 7.9 ± 0.1 mg/L.

What about the c350 of the same molecule?
The c350 was 7.9 ± 0.1.
